Counter-ions that a name gives are not always drawn.
Assays:
Type in all cases: physicochemical
Solubility in water = experiment: Solubility in water
[1] = Equilibration at different relative humidities for 22 days: water uptake (TGA weight loss) and crystal form; details: for TGA weight loss (%) (water uptake): HCl
Source text: (§1) Form A is characterized by an X-Ray diffraction pattern having peaks at about 10.9, 17.4 19.1, 25.0 and 26.0±0.2 degrees 2 theta.
(§2) In another aspect, the present invention provides for ziprasidone HCl Form F. Ziprasidone HCl Form F is characterized by an XRD pattern (FIG. 7) with peaks at 11.0, 18.1, 19.5, 21.9±0.2 degrees 2 theta. Ziprasidone HCl Form F is further characterized by XRD peaks at 14.9, 24.9, 26.1±0.2 degrees 2 theta. […] The water content and the weight loss by TGA of the sample may range of about 2.6% to about 16% by weight.
(§3) X-Ray powder diffraction data were obtained using by method known in the art using a SCINTAG powder X-Ray diffractometer model X'TRA equipped with a solid state detector. Copper radiation of 1.5418 Å was used. A round aluminum sample holder with round zero background quartz plate, with cavity of 25(diameter)*0.5(dept) mm.
TGA analysis was done using a Mettler M3 meter. The weight of the samples was about 10 mg; the samples were scanned at a rate of 10° C./min from 25° C. to 200° C. The oven was constantly purged with nitrogen gas at a flow rate of 40 ml/min. Standard 70 μl alumina crucibles covered by lids with 1 hole were used.
(§4) The water content of ziprasidone HCl was measured by the methods known in the art like Karl Fisher or thermogravimetric analysis (TGA). In the case of ziprasidone HCl F, the TGA and Karl Fisher analysis matched, while for ziprasidone HCl form E the TGA analysis exceeded by far that of Karl Fisher, as an indication that a significant quantity of solvent is present.

[2] = Heating at 80-105° C. overnight: crystal form and water content; details: for Crystal form after heating at 80-105° C. overnight / Crystal form after heating at elevated temperature: HCl; for Crystal form after heating at elevated temperature: about 80° C. overnight
Source text: as §1, §2, §3, §4

[3] = Solubility in methanol (noted for Karl Fisher water determination)
Source text: Ziprasidone HCl Form G may have a water content of about 5% to about 12%. Ziprasidone HCl Form G may be a dihydrate (about 7.4% stoichiometric value for the dihydrate) or a trihydrate (about 10.7% stoichiometric value for the trihydrate).

Row | Structure (SMILES) | Solubility in water (Solubility in water) | Crystal form ([1]; RH 0%, 22 days) | TGA weight loss (%) (water uptake) ([1]; RH 0%, 22 days) | TGA weight loss (%) (water uptake) ([1]; RH 20%, 22 days) | TGA weight loss (%) (water uptake) ([1]; RH 40%, 22 days) | TGA weight loss (%) (water uptake) ([1]; RH 60%, 22 days) | Crystal form ([1]; RH 80%, 22 days) | TGA weight loss (%) (water uptake) ([1]; RH 80%, 22 days) | Crystal form ([1]; RH 100%, 22 days) | TGA weight loss (%) (water uptake) ([1]; RH 100%, 22 days) | Crystal form after exposure to relative humidity of about 20% to about 60% ([1]; RH about 20% to about 60%, about 22 days) | Crystal form after exposure to low relative humidity ([1]; about 10% to about 0% relative humidity, 22 days) | Crystal form after exposure to high relative humidity ([1]; high relative humidity, about 22 days) | Crystal form after heating at 80-105° C. overnight [2] | Crystal form after heating at elevated temperature [2] | Crystal form after equilibration at relative humidity of about 0% to about 100% ([1]; RH about 0% to about 100%) | % water content ([2]; after heating at 80-105° C. overnight) [%] | Water content after heating ([2]; heated overnight at about 80° C.) [%] | Solubility in methanol [3]
1 | O=C1Cc2cc(CCN3CCN(c4nsc5ccccc45)CC3)c(Cl)cc2N1 [ziprasidone HCl] | low solubility |  |  |  |  |  |  |  |  |  |  |  |  |  |  |  |  |  | 
2 | O=C1Cc2cc(CCN3CCN(c4nsc5ccccc45)CC3)c(Cl)cc2N1 [ziprasidone HCl form E, ziprasidone HCl] |  | Amorphous | 5.3 | 7.2 | 4.8 | 5.0 | Monohydrate + | 9.2 | Monohydrate + | 51.3 | transforms to Form A | transforms to amorphous form | transforms to form M | Amorphous + form F | transforms to amorphous form |  |  |  | 
3 | O=C1Cc2cc(CCN3CCN(c4nsc5ccccc45)CC3)c(Cl)cc2N1 [ziprasidone HCl form F, ziprasidone HCl] |  |  | 2.6 | 4.2 | 4.0 | 4.5 |  | 7.7 |  | 15.8 |  |  |  | Form F | retains its original crystal form | retains its crystal form | 0.8 | 0.8 | 
4 | O=C1Cc2cc(CCN3CCN(c4nsc5ccccc45)CC3)c(Cl)cc2N1 [Ziprasidone HCl Form G, ziprasidone HCl] |  |  |  |  |  |  |  |  |  |  |  |  |  |  |  |  |  |  | sparingly soluble

— patent US20080090835A1, “Polymorphic forms of ziprasidone HCl and processes for their preparation” (Teva Pharmaceuticals USA, Inc. for Barbados, priority 2003, published 2008)
